The source of these data is patent publication US8053416B2, “Isolation and structure of turbostatins 1-4” (Arizona Board of Regents, a body corporate of the State of …, priority 2005, dated 2011).

The subject of experiment [1] is murine P388 lymphocytic leukemia cell line. Description: Murine P388 lymphocytic leukemia cell line growth inhibition. The experiment is classed as cell-based. As to conditions: in DMSO. As for the experimental part: (§1) Cancer Cell Line Methods. The National Cancer Institute's standard sulforhodamine B assay was used to assess inhibition of human cancer cell growth. The murine P388 lymphocytic leukemia cell line results were obtained using 10% horse serum/Fisher medium with incubation for 24 hours.

In experiment [2] the test system is BXPC-3 (pancreas adenocarcinoma). Briefly: NCI sulforhodamine B human cancer cell growth inhibition, BXPC-3. It is filed as cell-based. As to conditions: in DMSO. As for the experimental part:
as §1

The test system of experiment [3] is MCF-7 (breast adenocarcinoma). Description: NCI sulforhodamine B human cancer cell growth inhibition, MCF-7. The experiment is classed as cell-based. As to conditions: in DMSO. As for the experimental part:
as §1

Another experiment relates to SF268 (CNS glioblastoma). Description: NCI sulforhodamine B human cancer cell growth inhibition, SF268. The experiment is classed as cell-based. To be noted: in DMSO. As for the experimental part:
as §1

Experiment [4] deals with NCI-H460 (lung large cell). Description: NCI sulforhodamine B human cancer cell growth inhibition, NCI-H460. The experiment is classed as cell-based. As to conditions: in DMSO. As for the experimental part:
as §1

Experiment [5] deals with KML20L2 (colon adenocarcinoma). Briefly: NCI sulforhodamine B human cancer cell growth inhibition, KML20L2. The experiment is classed as cell-based. To be noted: in DMSO. As to the method:
as §1

Experiment [6] deals with DU-145 (prostate carcinoma). Briefly: NCI sulforhodamine B human cancer cell growth inhibition, DU-145. The experiment is classed as cell-based. As to conditions: in DMSO. As to the method:
as §1

Experiment [7] concerns murine P388 lymphocytic leukemia (in vivo). As to conditions: dose levels from 4.0 to 800 mg/kg, 123 = 23% increase in median survival time; cited from earlier work.
Experiment [8] concerns in vivo L-1210 lymphoid leukemia. To be noted: cited from earlier work.
Experiment [9] has as its system human epidermoid carcinoma of the nasopharynx (KB) cell line. As to conditions: cited from earlier work.

Some results are limits rather than exact numbers.

For the molecule `CCCCCCCCCCC/C=C/[C@@H](O)[C@H](CO[C@@H]1O[C@H](CO)[C@@H](O)[C@H](O)[C@H]1O)NC(=O)CCCCCCCCCCCCCCCCC` [Compound 2, 1-O-β-D-glucopyranosyl-2S-octadecanoylamino-3R-hydroxy-4E-hexadecene], the “Cell line inhibition value GI50” value came to 0.15 µg/mL in [1]; 1.0 µg/mL in experiment [2]; 0.39 µg/mL in experiment [3]; 1.9 µg/mL in the experiment with SF268 (CNS glioblastoma); 0.53 µg/mL in experiment [4]; 0.35 µg/mL in experiment [5]. In addition, in [6], the “Cell line inhibition value GI50” value was determined as 1.7 µg/mL.
In the case of `NCCS(=O)(=O)O` [taurine], in experiment [7], the T/C is not above 123. Also, in experiment [8], the “Activity against in vivo L-1210 lymphoid leukemia” value was “inactive”. Moreover, the “Activity against KB cell line” value in [9] is “inactive”.
`CCCCCCCCCCC/C=C/[C@@H](O)[C@H](CO[C@@H]1O[C@H](CO)[C@@H](O)[C@H](O)[C@H]1O)NC(=O)CCCCCCCCCCCCCCC` [Compound 1, 1-O-β-D-glucopyranosyl-2S-hexadecanoylamino-3R-hydroxy-4E-hexadecene]: the “Cell line inhibition value GI50” value in experiment [1] amounted to 0.27 µg/mL; in experiment [2], 0.71 µg/mL; in experiment [3], 0.44 µg/mL; in the experiment on SF268 (CNS glioblastoma) it was 0.98 µg/mL; in [4] it was 0.34 µg/mL; in experiment [5], 0.35 µg/mL. In experiment [6], the “Cell line inhibition value GI50” value came to 1.6 µg/mL.
For the molecule `CCCCCCCCCCC/C=C/[C@@H](O)[C@H](CO[C@@H]1O[C@H](CO)[C@H](O)[C@H](O)[C@H]1O)NC(=O)CCCCCCCCCCCCCCCCC` [Compound 4, 1-O-β-D-galactopyranosyl-2S-octadecanoylamino-3R-hydroxy-4E-hexadecene], the “Cell line inhibition value GI50” value in experiment [1] was 0.29 µg/mL; in experiment [2], 0.93 µg/mL; in experiment [3], 0.44 µg/mL; with SF268 (CNS glioblastoma), 1.5 µg/mL; in experiment [4], 0.49 µg/mL; in experiment [5], 0.41 µg/mL. Moreover, the “Cell line inhibition value GI50” value in experiment [6] was determined as 2.6 µg/mL.
In the case of `CCCCCCCCCCC/C=C/[C@@H](O)[C@H](CO[C@@H]1O[C@H](CO)[C@H](O)[C@H](O)[C@H]1O)NC(=O)CCCCCCCCCCCCCCC` [Compound 3, 1-O-β-D-galactopyranosyl-2S-hexadecanoylamino-3R-hydroxy-4E-hexadecene], the “Cell line inhibition value GI50” value in experiment [1] came out at 0.25 µg/mL; in [2], 1.6 µg/mL; in experiment [3] it was 0.48 µg/mL; with SF268 (CNS glioblastoma), 1.9 µg/mL; in [4], 0.55 µg/mL; in [5], 0.48 µg/mL. Besides, the “Cell line inhibition value GI50” value in experiment [6] was determined as 2.6 µg/mL.
